Measurements from US20250082786A1, “FLUORESCENT MARKERS FOR NEUROFIBRILLAR TANGLES AND USES THEREOF” (FONDAZIONE ISTITUTO ITALIANO DI TECNOLOGIA, priority 2021, published 2025).

Experiments:
[1] = test system: intracellular TAU aggregates in human iPSC-derived cortical neurons; experiment: Probe staining of hiPSC-derived cortical neurons, colocalization with anti-T22 and anti-AT8 antibodies; assay type: cell-based; details: 100 μM probe, 30 minutes at 37° C., cortical neurons at 30 days in vitro
Experimental: FIG. 3. (A) Representative binarized fluorescence image showing human iPSC-derived cortical neurons at 30 days in vitro after incubation with BT1 (100 μM) for 30 minutes at 37° C. and staining with anti-T22 and anti-AT8 antibodies. • (B) Representative binarized fluorescence image showing human iPSC-derived cortical neurons at 30 days in vitro after incubation with TAU1 (100 μM) for 30 minutes at 37° C. and staining with anti-T22 and anti-AT8 antibodies. • (C) Fluorescence composite of the above representative images. […] (D) The probe specificity is calculated as the ratio between the antibody intensity within the area covered by BT1 or TAU1 out of the total antibody intensity (n=3), as determined using Image J. Images were acquired at the FV10i confocal microscope using a […] magnification. […]
Fixed hiPSC-derived cortical neurons and RGCs were permeabilized with 0.2% Triton X-100 (Merck Life Science) in 1×TBS and incubated for 1 hour in blocking solution containing 1×TBS, 0.2% Triton X-100, and 5% goat serum (Merck Life Science). […] Fluorescence intensity per field of view was determined using the Software Image J.
The ability of the BT1 probe to stain specifically intracellular TAU aggregates was determined as a function of the antibody fluorescent signal detected within the binarized probe signal.

[2] = test system: intracellular TAU aggregates in human iPSC-derived retinal ganglion cells; experiment: Probe staining of hiPSC-derived retinal ganglion cells, colocalization with anti-T22 and anti-AT8 antibodies; assay type: cell-based; details: 100 μM probe, 30 minutes at 37° C., retinal ganglion cells at 30 days in vitro
Experimental: FIG. 4. (A) Representative binarized fluorescence image showing human iPSC-derived retinal ganglion cells at 30 days in vitro after incubation with BT1 (100 μM) for 30 minutes at 37° C. and staining with anti-T22 and anti-AT8 antibodies. • (B) Representative binarized fluorescence image showing human iPSC-derived retinal ganglion cells at 30 days in vitro after incubation with TAU1 (100 μM) for 30 minutes at 37° C. and staining with anti-T22 and anti-AT8 antibodies. • (C) Fluorescence composite of the above representative images. The fluorescent image of BT1 was obtained using excitation at 520 nm with a 555/15 nm filter in detection; TAU1 was obtained using excitation at 470 nm with a 510/5 nm filter in detection. […] Cell nuclei were stained with DAPI. • (D) The probe specificity is calculated as the ratio between the antibody intensity within the area covered by BT1 or TAU1 out of the total antibody intensity (n=3), as determined using Image J. Images were acquired at the FV10i confocal microscope using a 60× magnification.
The differentiation protocol was a revisited version of Sluch V. et al, 2017 with minor modifications. Human iPSCs were dissociated to single cells with 1× Accutase (Merck Life science) and plated on growth factor-reduced Matrigel coated plates at a density of 1000 cells/mm2 in mTeSR Plus supplemented with 10 μM Rock-inhibitor Y-27632 (Peprotech). […]

## CC1=CC(/C=C/c2ccc(/C=C/c3ccc(N(C)C)cc3)cc2)=[N+]2C1=Cc1cccn1[B-]2(F)F [BT1, 3-((E)-4-((E)-4-(dimethylamino)styryl)styryl)-5,5-difluoro-1-methyl-5H-dipyrrolo[1,2-c:2′,1′-f][1,3,2]diazaborinin-4-ium-5-uide]
[1]
  Ability to detect phosphorylated (AT8-positive) aggregates: higher ability to detect phosphorylated aggregates when compared to the TAU1 probe
  Colocalization of probe signal with AT8 versus T22 antibody signal: higher colocalization with AT8 signal in respect to T22
[2]
  Ability to detect phosphorylated (AT8-positive) aggregates: higher ability to detect phosphorylated aggregates when compared to the TAU1 probe
  Colocalization of probe signal with AT8 versus T22 antibody signal: higher colocalization with AT8 signal in respect to T22
